The results in this text go back to PubChem BioAssay (NCI).

The structures appear in SMILES notation.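 Dose response: 5 concentrations. Exposure: 48 h. Format: 96-well plates. Endpoint: linear interpolation; highest concentration if not reached. GI50: concentration for 50% inhibition of growth. TGI: concentration producing complete growth inhibition.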

Test systems include RPMI-8226 leukemia; MALME-3M melanoma; SK-MEL-5 melanoma; NCI-H522 lung; SK-OV-3 ovarian; COLO 205 colon; CAKI-1 renal; SK-MEL-2 melanoma; HS 578T breast; SN12C renal.
What all share (experiment): NCI tumour cell line growth inhibition, 48 h

`N#Cc1cccc(C2ON=C(c3ccc([N+](=O)[O-])cc3)N2C23CC4CC(CC(C4)C2)C3)c1` (stereo not given): the TGI with RPMI-8226 leukemia, with MALME-3M melanoma, with SK-MEL-5 melanoma, in the assay with NCI-H522 lung, with SK-OV-3 ovarian and in the assay on COLO 205 colon was above 100 µM each time. The TGI in the assay on CAKI-1 renal, in the assay with SK-MEL-2 melanoma, with HS 578T breast and with SN12C renal was above 100 µM in each case.
Turning to `CNNC1=NS(=O)(=O)c2cc(C)c(Cl)cc2S1`, the TGI in the assay with RPMI-8226 leukemia, in the assay on MALME-3M melanoma, with SK-MEL-5 melanoma, in the assay on NCI-H522 lung, in the assay on SK-OV-3 ovarian and in the assay with COLO 205 colon was above 10 µM each time. Moreover, the TGI in the assay on CAKI-1 renal, with SK-MEL-2 melanoma, with HS 578T breast and in the assay with SN12C renal was above 10 µM each time.
For the molecule `O=C(c1ccc(Cl)cc1Cl)N(Cc1cccnc1)C(=S)N(Cc1cccnc1)C(=O)c1ccc(Cl)cc1Cl`, the TGI was above 100 µM in the assay on RPMI-8226 leukemia; 36.9 µM in the assay with MALME-3M melanoma; 11.9 µM in the assay on SK-MEL-5 melanoma; 9.8 µM in the assay with NCI-H522 lung; 37.1 µM with SK-OV-3 ovarian; 4.09 µM with COLO 205 colon. Moreover, the TGI in the assay with CAKI-1 renal was 34.4 µM; in the assay with SK-MEL-2 melanoma, 13.7 µM; in the assay on HS 578T breast, 66.4 µM; with SN12C renal it was 18.3 µM.
`O=C(O)c1cccc(S(=O)(=O)NN2C(=O)CSC2c2ccccc2)c1` (stereo not given): the TGI in the assay on RPMI-8226 leukemia, with MALME-3M melanoma, with SK-MEL-5 melanoma, with NCI-H522 lung, with SK-OV-3 ovarian and with COLO 205 colon was above 100 µM each time. Further, the TGI in the assay with CAKI-1 renal, in the assay with SK-MEL-2 melanoma, in the assay on HS 578T breast and in the assay on SN12C renal was above 100 µM in each case.
For the molecule `Cc1cc(C)c(S(=O)(=O)N[C@@H](/C=C(\Br)CO)C(C)C)c(C)c1`, the TGI in the assay with RPMI-8226 leukemia is 54.5 µM; with MALME-3M melanoma, 61.6 µM; in the assay on SK-MEL-5 melanoma, 30.5 µM; in the assay on NCI-H522 lung, 37 µM; with SK-OV-3 ovarian it was above 100 µM; in the assay with COLO 205 colon it was 31.8 µM. Besides, the TGI was above 100 µM in the assay on CAKI-1 renal, 33.7 µM in the assay on SK-MEL-2 melanoma, 54.5 µM in the assay with HS 578T breast and 32 µM in the assay on SN12C renal.
For `CC(NC1=CC(=O)c2ncccc2C1=O)C(O)c1ccccc1` (stereo not given), the TGI with RPMI-8226 leukemia is 53.9 µM; in the assay with MALME-3M melanoma, 4.97 µM; in the assay on SK-MEL-5 melanoma, 2.6 µM; in the assay on NCI-H522 lung, 24.8 µM; in the assay on SK-OV-3 ovarian, 71.7 µM; in the assay on COLO 205 colon, 29.7 µM. For the same molecule, the TGI in the assay on CAKI-1 renal stood at 16.2 µM; in the assay on SK-MEL-2 melanoma it was 17.9 µM; in the assay on HS 578T breast it was 25.1 µM; with SN12C renal, 24.9 µM.
As for `Nc1nc(Cl)c(C=O)c(NCC2(CO)CC(CCc3ccccc3)C2)n1` (stereo not given), the TGI in the assay with RPMI-8226 leukemia came to 35.8 µM; with MALME-3M melanoma, 30.2 µM; in the assay on SK-MEL-5 melanoma, 20.3 µM; in the assay on NCI-H522 lung it was 3.56 µM; with SK-OV-3 ovarian, 24.4 µM; with COLO 205 colon, 24.2 µM. Further, the TGI stood at 3.14 µM with CAKI-1 renal, 19.2 µM in the assay with SK-MEL-2 melanoma, 84.6 µM with HS 578T breast and 19 µM in the assay on SN12C renal.
Turning to `Cc1cccc(/C=N/NC(=S)NCc2ccccn2)n1`, the TGI with RPMI-8226 leukemia is above 100 µM; with MALME-3M melanoma, above 100 µM; with SK-MEL-5 melanoma, 70.9 µM; in the assay on NCI-H522 lung, above 100 µM; in the assay with SK-OV-3 ovarian it was 97.7 µM; in the assay with COLO 205 colon, above 100 µM. Also, the TGI with CAKI-1 renal, in the assay with SK-MEL-2 melanoma, in the assay on HS 578T breast and with SN12C renal was above 100 µM throughout.
In the case of `COC(=O)C1Cc2ccc(C)cc2C1=O` (stereo not given), the TGI in the assay on RPMI-8226 leukemia, with MALME-3M melanoma, with SK-MEL-5 melanoma, with NCI-H522 lung, in the assay with SK-OV-3 ovarian and in the assay with COLO 205 colon was above 100 µM in each case. For the same molecule, the TGI in the assay with CAKI-1 renal, in the assay on SK-MEL-2 melanoma, in the assay with HS 578T breast and in the assay with SN12C renal was above 100 µM throughout.
With `COc1ccc(NC(=O)CC(=O)n2nc(C)c(N=Nc3ccc(C)c(C)c3)c2C)cc1`, the TGI in the assay on RPMI-8226 leukemia was above 100 µM; in the assay on MALME-3M melanoma, above 100 µM; in the assay on SK-MEL-5 melanoma, above 100 µM; in the assay on NCI-H522 lung, above 100 µM; in the assay on SK-OV-3 ovarian it was 27.7 µM; in the assay on COLO 205 colon it was above 100 µM. Also, the TGI was above 100 µM in the assay with CAKI-1 renal, above 100 µM in the assay with SK-MEL-2 melanoma, 97.4 µM in the assay with HS 578T breast and above 100 µM with SN12C renal.
In the case of `CSc1c(C(=O)Nc2ccc(C)cc2)c(N)nn1-c1ccccc1`, the TGI in the assay with RPMI-8226 leukemia is above 100 µM; with MALME-3M melanoma, 75.7 µM; with SK-MEL-5 melanoma, above 100 µM; in the assay with NCI-H522 lung, above 100 µM; in the assay with SK-OV-3 ovarian, above 100 µM; in the assay with COLO 205 colon, above 100 µM. The TGI was 49.9 µM in the assay on CAKI-1 renal, above 100 µM with SK-MEL-2 melanoma, above 100 µM in the assay with HS 578T breast and above 100 µM in the assay on SN12C renal.
Regarding `OC1c2ccccc2[C@@H]2[C@H]1[C@@H](c1ccccc1)C1(Cc3ccccc3C1O)[C@H]2c1ccccc1` (stereo not given in full), the TGI in the assay with RPMI-8226 leukemia came out at 9.89 µM; in the assay with MALME-3M melanoma, 17.9 µM; with SK-MEL-5 melanoma, 18.2 µM; in the assay on NCI-H522 lung, 14.2 µM; in the assay with SK-OV-3 ovarian it was 23 µM; in the assay with COLO 205 colon, 3.62 µM. For the same molecule, the TGI was 22.8 µM in the assay with CAKI-1 renal, 20 µM with SK-MEL-2 melanoma, 25.1 µM with HS 578T breast and 3.29 µM in the assay on SN12C renal.
With `COc1ccc(/C=C2\CN(C(=O)CCN3CCC(=NO)CC3)C/C(=C\c3ccc(OC)cc3)C2=O)cc1`, the GI50 in the assay on RPMI-8226 leukemia was 648 nM; with MALME-3M melanoma, 2500 nM; in the assay with SK-MEL-5 melanoma, 1820 nM; in the assay on NCI-H522 lung, 2170 nM; in the assay on SK-OV-3 ovarian, 2720 nM; with COLO 205 colon, 2040 nM. The GI50 with CAKI-1 renal was 1820 nM; in the assay on SK-MEL-2 melanoma, 11.7 µM; with HS 578T breast, 3.64 µM; in the assay with SN12C renal, 2270 nM. For the same molecule, the TGI in the assay with RPMI-8226 leukemia worked out at 3.79 µM; with MALME-3M melanoma, 7.49 µM; in the assay with SK-MEL-5 melanoma, 3.29 µM; with NCI-H522 lung it was 5.5 µM; with SK-OV-3 ovarian, 7 µM; with COLO 205 colon, 4.11 µM. For the same molecule, the TGI was 3.74 µM with CAKI-1 renal, 30.4 µM in the assay with SK-MEL-2 melanoma, 18.6 µM in the assay with HS 578T breast and 5.92 µM in the assay on SN12C renal.
For the molecule `CC(=O)Oc1ccc(N2C(=O)C3c4[nH]c5ccccc5c4C4CCC(C(C)(C)C)CC4C3C2=O)cc1` (stereo not given), the TGI in the assay with RPMI-8226 leukemia was above 100 µM; in the assay on MALME-3M melanoma, 19.4 µM; in the assay on SK-MEL-5 melanoma, 8.19 µM; in the assay with NCI-H522 lung it was 9.93 µM; in the assay on SK-OV-3 ovarian it was 24 µM; in the assay on COLO 205 colon, 17.5 µM. For the same molecule, the TGI is 16 µM with CAKI-1 renal, 17.8 µM with SK-MEL-2 melanoma, 8.82 µM in the assay on HS 578T breast and 4.17 µM in the assay with SN12C renal.
As for `CC(CC(=O)CO[C@H]1[C@H](O)[C@@H](O)[C@@H](O)[C@@H]2NC(=O)c3c(cc4c(c3O)OCO4)[C@H]21)OC1OC(CO)C(O)C(O)C1O` (stereo not given in full), the TGI with RPMI-8226 leukemia is 2.07 µM; in the assay on MALME-3M melanoma, 3.16 µM; in the assay with SK-MEL-5 melanoma, 1.48 µM; in the assay with NCI-H522 lung it was 1.23 µM; in the assay with SK-OV-3 ovarian, 3.87 µM; with COLO 205 colon it was 1.16 µM. In addition, the TGI is above 100 µM in the assay on CAKI-1 renal, 0.859 µM with SK-MEL-2 melanoma, 3.76 µM in the assay with HS 578T breast and 2.14 µM with SN12C renal.
Turning to `Oc1c(C2=NNC(c3cccs3)C2)ccc2ccccc12` (stereo not given), the TGI in the assay on RPMI-8226 leukemia is 77.9 µM; in the assay on MALME-3M melanoma it was above 100 µM; in the assay on SK-MEL-5 melanoma it was 56.4 µM; in the assay with NCI-H522 lung, 60.6 µM; with SK-OV-3 ovarian, above 100 µM; in the assay with COLO 205 colon it was 37.7 µM. For the same molecule, the TGI is above 100 µM in the assay with CAKI-1 renal, above 100 µM in the assay with SK-MEL-2 melanoma, 74.5 µM in the assay with HS 578T breast and 38.1 µM in the assay with SN12C renal.
Consider `Clc1ccccc1/C=C/c1nsc(/C=C/c2ccccc2Cl)n1`, for which the TGI was 84.5 µM with RPMI-8226 leukemia; above 100 µM in the assay with MALME-3M melanoma; above 100 µM in the assay with SK-MEL-5 melanoma; above 100 µM in the assay with NCI-H522 lung; above 100 µM in the assay on SK-OV-3 ovarian; above 100 µM in the assay on COLO 205 colon. For the same molecule, the TGI is above 100 µM in the assay with CAKI-1 renal, above 100 µM in the assay on SK-MEL-2 melanoma, above 100 µM in the assay on HS 578T breast and 51.5 µM in the assay on SN12C renal.
On to `COc1cc2c(cc1OC)C1Cc3ccccc3CCN1CC2` (stereo not given), for which the TGI with RPMI-8226 leukemia, with MALME-3M melanoma, in the assay on SK-MEL-5 melanoma, in the assay on NCI-H522 lung, in the assay with SK-OV-3 ovarian and in the assay with COLO 205 colon was above 100 µM in each case. Besides, the TGI in the assay on CAKI-1 renal, in the assay with SK-MEL-2 melanoma, with HS 578T breast and in the assay on SN12C renal was above 100 µM each time.
